From patent US20150224164A1, “TREATMENT OF AUTISM SPECTRUM DISORDERS USING GLYCYL-L-2-METHYLPROLYL-L-GLUMATIC ACID” (Neuren Pharmaceuticals Limited, priority 2013, published 2015)
Where a SMILES comes first, the peptide text is derived from it.

What was measured:
[1] = tested on: hippocampal CA1 neurons of mecp2 null mutant mice; assay: Dendritic arborization and spine analysis, Golgi staining (Example 9); type: in vivo, mouse
Method: We assess the effects of G-2-MePE treatment on dendrites. Transgenic mecp2 knockout mice (n=15 to 20) were administered G-2-MePE intraperitoneally at a dose of 20 mg/kg once daily. Following sacrifice dendritic spine density, spine length and aborization were examined after Golgi staining after nine weeks, as per the Table 1 below:
Dendritic length was assessed by distance from the soma of representative hippocampal CA1 neurons from 9 week old male mecp2 null mutant mice treated with either saline (3 neurons analysed from 3 separate mice, n=9) or G-2-MePE (20 mg/kg i.p. 1/day, from week 4; 3 neurons analysed from 3 separate mice, n=9).

[2] = tested on: adult MeCP2+/- mice; assay: Ocular dominance plasticity, optical imaging (Example 10); type: in vivo, mouse; conditions: 4 days monocular deprivation, daily i.p.
Method: Adult (>P60) wild type (SVEV or BL6) and MeCP2 (+/−) mutant females (BL6) are used for this experiment. The wild type control group is composed of both wild type littermates of MeCP2+/− females or wild type age matched SVEV females. For monocular deprivation, animals are anesthetized with Avertin (0.016 ml/g) and the eyelids of one eye is sutured for 4 days. Prior to imaging, the suture is removed and the deprived eye re-opened. Only animals in which the deprivation sutures are intact and the condition of the deprived eye appears healthy are used for the imaging session. For G-2-MePE signaling activation, a solution containing G-2-MePE is injected intra-peritoneally (IP) daily for the entire period of deprivation. For the imaging sessions mice are anesthetized with urethane (1.5 g/kg; 20% of the full dosage is administered IP each 20-30 minutes up to the final dosage, 0.02 ml of cloroprothixene 1% is also injected together with the first administration). The skull is exposed and a custom-made plate is glued on the head to minimize movement. The skull is thinned over V1 with a dremel drill and covered with an agarose solution in saline (1.5%) and a glass coverslip. During the imaging session, the animal is constantly oxygenated, its temperature maintained with a heating blanket and the eyes periodically treated with silicone oil; physiological conditions are constantly monitored. […]

[3] = tested on: 17 month old rats; assay: 8-arm radial maze, spatial working memory; type: in vivo, rat; conditions: for WCC8-12 score, improvement across days: 9-day washout
Description: The apparatus consists of a central platform communicating with 8 identical arms, each with a food cup at the end of the arm Rats were partially food-deprived for at least 10 days prior to, and throughout the radial maze procedure. The maze was assembled and positioned so that the experimenter could clearly observe the rats' behavior from a predetermined location. The experimenter numbered the arms of the maze according to their orientation from one to eight in a clock-wise direction. On day one the doors were inserted into the arms and each rat was confined in the central platform with 20 food pellets for 5 minutes. […] The following day the rats were allowed five minutes to explore the whole maze. All arms were baited with two food pellets in the food cup located at the end of each arm, and one pellet at both the entrance and middle of each arm. This was repeated for at least five, but up to eight days for rats that explored fewer than eight arms in two consecutive sessions. […] At this point it was decided that one of the old rats that had made only one arm entry on eight of the nine days should be excluded from future testing in this procedure. Otherwise all rats were included regardless of the amount of exploring they performed in pre-training. […] 30 days before the test (five days after pre-training) the 17 Male Wistar month old rats were implanted (under halothane anesthesia) with sub-cutaneous mini-osmotic pumps (Alzet) to dispense drug continuously for 3 weeks. At the completion of the infusion the pumps were removed and the wounds re-sutured (9-day washout allowed). The treatment groups were: • 1. young controls (4 months old), n=6; • 2. saline n=10; • 3. G-2-MePE low dose (2.4 mg/kg/day) n=13 • 4. G-2-MePE high dose (12.4 mg/kg/day) n=5 Working memory testing commenced on the ninth day of washout. Rats received 10 daily training sessions over 12 days. […] The experimenter recorded the sequence of arm entries with pen and paper. […] The time taken to enter all eight arms, when this occurred, was recorded. […]

[4] = tested on: MeCP2 knockout mice; assay: Nocturnal locomotor activity (Example 10); type: in vivo, mouse; conditions: after 6 weeks; 20 mg/kg i.p. daily
Method: Spontaneous motor activity is measured by using an infrared beam-activated movement-monitoring chamber (Opto-Varimax-MiniA; Columbus Instruments, Columbus, Ohio). For each experiment, a mouse is placed in the chamber at least 3 h before recordings started. Movement is monitored during the normal 12-h dark cycle (7 p.m. to 7 a.m.). One dark cycle per animal per time point is collected.

[5] = tested on: central nervous system; conditions: after oral administration; cited from earlier work

Which results are given for C[C@@]1(C(=O)N[C@@H](CCC(=O)O)C(=O)O)CCCN1C(=O)CN [Example G-2-MePE, Glycyl-L-2-methylprolyl-L-glutamic acid] (HELM PEPTIDE1{G.[C[C@@]1(C(=O)[*:2])CCCN1[*:1]].E}$$$$V2.0)?
dendritic length by distance from the soma ([1]; 20 mg/kg i.p. 1/day from week 4, vs saline): produced longer dendrites; dendritic arborization and dendritic spine length ([1]; 20 mg/kg i.p. once daily, 9 week old mice): improved dendritic arborization and increased dendritic spine length; ocular dominance plasticity [2]: reduces the OD plasticity; WCC8-12 score, improvement across days ([3]; high dose 12.4 mg/kg/day s.c. pump 3 weeks): showed the greatest improvement across days; correct maze choices averaged across days ([3]; higher dose vs vehicle, p<0.05): more correct entries; WCC8-12 score, improvement across days ([3]; low dose 2.4 mg/kg/day s.c. pump 3 weeks): very little difference; nocturnal locomotor activity levels [4]: elevates these levels; activity in the central nervous system [5]: active in the central nervous system
